Consider 16 compounds from PubChem BioAssay (NCI).

Among the test systems are 786-0 renal; M19-MEL melanoma; A498 renal; HOP-18 NSCLC; KM12 colon; EKVX NSCLC; NCI-H522 lung; HOP-92 NSCLC; PC-3 prostate; MDA-MB-231 breast.
What all share (test): NCI-60 cell line screen, 48 h

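Exposure lasted 48 hours, with cells grown in 96-well plates and compounds tested at five concentrations. TGI is the concentration that stops growth completely.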

As to `COc1ccccc1NC(=O)CC(=O)N1N=C(C)C(N=Nc2ccc(S(N)(=O)=O)cc2)C1=O` (configuration not stated), the TGI with 786-0 renal, in the experiment on M19-MEL melanoma, in the experiment with A498 renal, in the experiment with HOP-18 NSCLC, with KM12 colon and with EKVX NSCLC was over 100 µM throughout. The TGI in the experiment on NCI-H522 lung and in the experiment on HOP-92 NSCLC was over 100 µM each time.

Consider `CCOC(=O)C1=C(C)N(Cc2ccccc2)C(C)=C(C(=O)OCC)C1c1ccccc1O`, for which the TGI in the experiment on 786-0 renal is over 100 µM; in the experiment on M19-MEL melanoma, 75.7 µM; in the experiment on A498 renal, 91.4 µM; in the experiment on HOP-18 NSCLC, over 100 µM; in the experiment with KM12 colon, 64.4 µM; in the experiment on EKVX NSCLC it was 95.9 µM. Moreover, the TGI in the experiment on NCI-H522 lung is 74.5 µM; in the experiment with HOP-92 NSCLC, 50.6 µM.

As to `CCCCCCCCCCCCOC(=S)NCCCC`, the TGI in the experiment with 786-0 renal was 67.7 µM; in the experiment with M19-MEL melanoma, over 100 µM; in the experiment with A498 renal, 43.1 µM; in the experiment on HOP-18 NSCLC, 89.1 µM; with KM12 colon, 41.9 µM; with EKVX NSCLC, 47.8 µM. Besides, the TGI in the experiment on NCI-H522 lung worked out at 36.5 µM; in the experiment with HOP-92 NSCLC, 46.9 µM.

With `COCCN1C2=CCCCC2=Nc2c1nc(N)[nH]c2=O`, the TGI in the experiment with 786-0 renal, in the experiment on M19-MEL melanoma, in the experiment with A498 renal, in the experiment with HOP-18 NSCLC, in the experiment on KM12 colon and in the experiment with EKVX NSCLC was over 100 µM each time. Moreover, the TGI with NCI-H522 lung and in the experiment with HOP-92 NSCLC was over 100 µM each time.

`c1cc(-c2cn3ccsc3n2)ccn1`: the TGI with 786-0 renal was over 100 µM; in the experiment on M19-MEL melanoma, over 100 µM; with A498 renal, over 100 µM; in the experiment on HOP-18 NSCLC it was over 100 µM; with KM12 colon it was over 100 µM; with EKVX NSCLC, 98.7 µM. Further, the TGI with NCI-H522 lung and in the experiment with HOP-92 NSCLC was over 100 µM in each case.

For `Cc1ccc(C(=O)O/N=C2/CCC/C2=C\c2ccccc2)cc1`, the TGI in the experiment on 786-0 renal, in the experiment on M19-MEL melanoma, in the experiment with A498 renal, in the experiment on HOP-18 NSCLC, in the experiment on KM12 colon and with EKVX NSCLC was over 100 µM in each case. For the same compound, the TGI in the experiment with NCI-H522 lung and in the experiment with HOP-92 NSCLC was over 100 µM each time.

Regarding `NC(=S)N/N=C(/CC(=O)c1ccccc1)C(=O)Nc1ccc(Cl)c(Cl)c1`, the TGI with 786-0 renal, with M19-MEL melanoma, in the experiment with A498 renal, with HOP-18 NSCLC, in the experiment with KM12 colon and in the experiment on EKVX NSCLC was over 100 µM in each case. Further, the TGI with NCI-H522 lung was 59.4 µM; with HOP-92 NSCLC, over 100 µM.

`CC(C)C(=O)Nc1nc2nc[nH]c2c(=O)[nH]1`: the TGI with 786-0 renal, in the experiment with M19-MEL melanoma, with A498 renal, with HOP-18 NSCLC, in the experiment with KM12 colon and with EKVX NSCLC was over 100 µM in each case. Also, the TGI with NCI-H522 lung and in the experiment on HOP-92 NSCLC was over 100 µM in each case.

In the case of `COc1ccc2c(c1)C(O)(C(F)(F)F)c1cc(C(=O)C(F)(F)F)c3ccccc3c1N2` (configuration not stated), the TGI in the experiment on 786-0 renal turned out to be 26.3 µM; with M19-MEL melanoma, 28.2 µM; with A498 renal, 27.4 µM; in the experiment on HOP-18 NSCLC, 33.3 µM; in the experiment on KM12 colon, 15.6 µM; in the experiment on EKVX NSCLC, 34.1 µM. Further, the values for the TGI in the experiment with NCI-H522 lung and with HOP-92 NSCLC were 20.6 µM and 29.6 µM, respectively.

As to `O=C(c1ccc(F)cc1)c1cccc(C(=O)c2ccc(F)cc2)n1`, the TGI with 786-0 renal is 77.1 µM; in the experiment on PC-3 prostate it was over 100 µM; in the experiment with M19-MEL melanoma, over 100 µM; in the experiment with A498 renal, over 100 µM; in the experiment with HOP-18 NSCLC it was over 100 µM; in the experiment on MDA-MB-231 breast it was over 100 µM. Besides, the TGI in the experiment on KM12 colon is over 100 µM; with EKVX NSCLC, over 100 µM; in the experiment with NCI-H522 lung it was 71.5 µM; in the experiment on HOP-92 NSCLC it was 44.4 µM.

As for `CC(C)(C)OC(=O)C#CC[C@H]1CCCC1/C=C/C(O)=C1/C(=O)NC(CCCNC(=O)OC(C)(C)C)C1=O` (some centres not stated), the TGI was over 100 µM with 786-0 renal; 67.9 µM in the experiment with M19-MEL melanoma; over 100 µM in the experiment with A498 renal; over 100 µM in the experiment on HOP-18 NSCLC; over 100 µM with KM12 colon; over 100 µM in the experiment with EKVX NSCLC. The TGI in the experiment on NCI-H522 lung turned out to be 40.7 µM; in the experiment on HOP-92 NSCLC, 59 µM.

In the case of `COc1nc(NC2OCC(OC(C)=O)C(OC(C)=O)C2OC(C)=O)c(N=CC=Nc2c(NC3OCC(OC(C)=O)C(OC(C)=O)C3OC(C)=O)nc(OC)n(C)c2=O)c(=O)n1C` (configuration not stated), the TGI with 786-0 renal, in the experiment with M19-MEL melanoma, in the experiment with A498 renal, with HOP-18 NSCLC, in the experiment on KM12 colon and in the experiment on EKVX NSCLC was over 100 µM throughout. Besides, the TGI in the experiment with NCI-H522 lung and with HOP-92 NSCLC was over 100 µM in each case.

Take `COc1cccc(NC(=O)CC(=O)N2N=C(N(CCC#N)c3ccc(Cl)cc3)CC2c2ccccc2)c1` (configuration not stated): the TGI in the experiment on 786-0 renal, in the experiment with M19-MEL melanoma, in the experiment on A498 renal, with HOP-18 NSCLC, with KM12 colon and with EKVX NSCLC was over 100 µM in each case. Also, the TGI in the experiment on NCI-H522 lung and in the experiment on HOP-92 NSCLC was over 100 µM throughout.

In the case of `CNC(=O)OCc1nc(SC2CCCCO2)n(C)c1COC(=O)NC` (configuration not stated), the TGI with 786-0 renal, in the experiment with M19-MEL melanoma, with A498 renal, with HOP-18 NSCLC, in the experiment on KM12 colon and in the experiment on EKVX NSCLC was over 100 µM each time. For the same compound, the TGI in the experiment on NCI-H522 lung and in the experiment on HOP-92 NSCLC was over 100 µM each time.

For `CCN(CC)CCn1ccc(=O)c2cc3c(=O)ccn(CCN(CC)CC)c3c(C)c21`, the TGI in the experiment with 786-0 renal turned out to be 8.56 µM; in the experiment on PC-3 prostate, 15.9 µM; in the experiment with M19-MEL melanoma, 25.2 µM; in the experiment on A498 renal, 29.2 µM; in the experiment with HOP-18 NSCLC, 30 µM; in the experiment on MDA-MB-231 breast, 18.3 µM. The TGI with KM12 colon came to 2.61 µM; in the experiment on EKVX NSCLC, 18.8 µM; in the experiment with NCI-H522 lung, 20.7 µM; with HOP-92 NSCLC, 19.5 µM.

As to `CC(=O)NNc1nc(C)c(C(=O)NNC(=O)C(=O)Nc2ccccc2C#N)s1`, the TGI in the experiment on 786-0 renal, in the experiment on M19-MEL melanoma, with A498 renal, in the experiment with HOP-18 NSCLC, in the experiment with KM12 colon and in the experiment on EKVX NSCLC was over 100 µM throughout. Moreover, the TGI with NCI-H522 lung and in the experiment with HOP-92 NSCLC was over 100 µM in each case.
